# From PubChem BioAssay (NCI)
#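 Five concentrations, 48 hours, 96-well plates. Here, GI50 denotes the concentration required for 50% inhibition of growth. The concentration for full growth arrest is given as TGI.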
# What was measured:
# Assay in all cases: NCI tumour cell line growth inhibition, 48 h
# M14 melanoma = system: M14 melanoma
# NCI-H460 lung = system: NCI-H460 lung
# NCI-H23 lung = system: NCI-H23 lung
# HOP-62 NSCLC = system: HOP-62 NSCLC
# BT-549 breast = system: BT-549 breast
# OVCAR-3 ovarian = system: OVCAR-3 ovarian
# NCI-H522 lung = system: NCI-H522 lung
# SN12C renal = system: SN12C renal
# HT29 colon = system: HT29 colon
# UACC-62 melanoma = system: UACC-62 melanoma
# U251 CNS = system: U251 CNS
# SF-295 CNS = system: SF-295 CNS
# MALME-3M melanoma = system: MALME-3M melanoma
# 786-0 renal = system: 786-0 renal
# MDA-MB-231 breast = system: MDA-MB-231 breast
# SK-OV-3 ovarian = system: SK-OV-3 ovarian
# EKVX NSCLC = system: EKVX NSCLC
# UACC-257 melanoma = system: UACC-257 melanoma
# A549 NSCLC = system: A549 NSCLC
# SK-MEL-2 melanoma = system: SK-MEL-2 melanoma
# HCC-2998 colon = system: HCC-2998 colon
# RXF 393 renal = system: RXF 393 renal
# KM12 colon = system: KM12 colon
# SF-268 CNS = system: SF-268 CNS
# HCT-116 colon = system: HCT-116 colon
# IGROV1 ovarian = system: IGROV1 ovarian
# A498 renal = system: A498 renal
# LOX IMVI melanoma = system: LOX IMVI melanoma
# NCI/ADR-RES ovarian = system: NCI/ADR-RES ovarian
# SW-620 colon = system: SW-620 colon
# DU-145 prostate = system: DU-145 prostate
# MCF7 breast = system: MCF7 breast
# SNB-19 CNS = system: SNB-19 CNS
# SK-MEL-5 melanoma = system: SK-MEL-5 melanoma
# SNB-75 CNS = system: SNB-75 CNS
# HS 578T breast = system: HS 578T breast
# OVCAR-4 ovarian = system: OVCAR-4 ovarian
# UO-31 renal = system: UO-31 renal
# NCI-H226 lung = system: NCI-H226 lung
# T-47D breast = system: T-47D breast
# TK-10 renal = system: TK-10 renal
# CAKI-1 renal = system: CAKI-1 renal
# COLO 205 colon = system: COLO 205 colon
# MDA-MB-435 = system: MDA-MB-435
# SK-MEL-28 melanoma = system: SK-MEL-28 melanoma
# OVCAR-8 ovarian = system: OVCAR-8 ovarian
# RPMI-8226 leukemia = system: RPMI-8226 leukemia
# HOP-92 NSCLC = system: HOP-92 NSCLC
# K-562 leukemia = system: K-562 leukemia
# HCT-15 colon = system: HCT-15 colon
# SF-539 CNS = system: SF-539 CNS
# ACHN renal = system: ACHN renal
# MOLT-4 leukemia = system: MOLT-4 leukemia
# HL-60(TB) leukemia = system: HL-60(TB) leukemia
# OVCAR-5 ovarian = system: OVCAR-5 ovarian
structure (smiles),measurement,setting,value
N#CC1(Nc2ccc(Br)cc2)CCCC1,GI50,M14 melanoma,1.2 µM
same,TGI,M14 melanoma,> 100 µM
same,GI50,NCI-H460 lung,1.99 µM
same,TGI,NCI-H460 lung,> 100 µM
same,GI50,NCI-H23 lung,> 100 µM
same,TGI,NCI-H23 lung,> 100 µM
same,GI50,HOP-62 NSCLC,> 100 µM
same,TGI,HOP-62 NSCLC,> 100 µM
same,GI50,BT-549 breast,22.2 µM
same,TGI,BT-549 breast,> 100 µM
same,GI50,OVCAR-3 ovarian,96.4 µM
same,TGI,OVCAR-3 ovarian,> 100 µM
same,GI50,NCI-H522 lung,> 100 µM
same,TGI,NCI-H522 lung,> 100 µM
same,GI50,SN12C renal,12.6 µM
same,TGI,SN12C renal,> 100 µM
same,GI50,HT29 colon,> 100 µM
same,TGI,HT29 colon,> 100 µM
same,GI50,UACC-62 melanoma,0.427 µM
same,TGI,UACC-62 melanoma,> 100 µM
same,GI50,U251 CNS,44.5 µM
same,TGI,U251 CNS,> 100 µM
same,GI50,SF-295 CNS,2.3 µM
same,TGI,SF-295 CNS,> 100 µM
same,GI50,MALME-3M melanoma,42.6 µM
same,TGI,MALME-3M melanoma,> 100 µM
same,GI50,786-0 renal,11.3 µM
same,TGI,786-0 renal,> 100 µM
same,GI50,MDA-MB-231 breast,3.16 µM
same,TGI,MDA-MB-231 breast,> 100 µM
same,GI50,SK-OV-3 ovarian,> 100 µM
same,TGI,SK-OV-3 ovarian,> 100 µM
same,GI50,EKVX NSCLC,7.27 µM
same,TGI,EKVX NSCLC,> 100 µM
same,GI50,UACC-257 melanoma,31.4 µM
same,TGI,UACC-257 melanoma,> 100 µM
same,GI50,A549 NSCLC,8.15 µM
same,TGI,A549 NSCLC,> 100 µM
same,GI50,SK-MEL-2 melanoma,> 100 µM
same,TGI,SK-MEL-2 melanoma,> 100 µM
same,GI50,HCC-2998 colon,8.3 µM
same,TGI,HCC-2998 colon,> 100 µM
same,GI50,RXF 393 renal,> 100 µM
same,TGI,RXF 393 renal,> 100 µM
same,GI50,KM12 colon,1.86 µM
same,TGI,KM12 colon,> 100 µM
same,GI50,SF-268 CNS,> 100 µM
same,TGI,SF-268 CNS,> 100 µM
same,GI50,HCT-116 colon,> 100 µM
same,TGI,HCT-116 colon,> 100 µM
same,GI50,IGROV1 ovarian,75.4 µM
same,TGI,IGROV1 ovarian,> 100 µM
same,GI50,A498 renal,> 100 µM
same,TGI,A498 renal,> 100 µM
same,GI50,LOX IMVI melanoma,0.543 µM
same,TGI,LOX IMVI melanoma,> 100 µM
same,GI50,NCI/ADR-RES ovarian,9.2 µM
same,TGI,NCI/ADR-RES ovarian,> 100 µM
same,GI50,SW-620 colon,3.22 µM
same,TGI,SW-620 colon,> 100 µM
same,GI50,DU-145 prostate,> 100 µM
same,TGI,DU-145 prostate,> 100 µM
same,GI50,MCF7 breast,9.98 µM
same,TGI,MCF7 breast,> 100 µM
same,GI50,SNB-19 CNS,> 100 µM
same,TGI,SNB-19 CNS,> 100 µM
same,GI50,SK-MEL-5 melanoma,3.05 µM
same,TGI,SK-MEL-5 melanoma,> 100 µM
same,GI50,SNB-75 CNS,> 100 µM
same,TGI,SNB-75 CNS,> 100 µM
same,GI50,HS 578T breast,> 100 µM
same,TGI,HS 578T breast,> 100 µM
same,GI50,OVCAR-4 ovarian,> 100 µM
same,TGI,OVCAR-4 ovarian,> 100 µM
same,GI50,UO-31 renal,4.69 µM
same,TGI,UO-31 renal,> 100 µM
same,GI50,NCI-H226 lung,> 100 µM
same,TGI,NCI-H226 lung,> 100 µM
same,GI50,T-47D breast,9.39 µM
same,TGI,T-47D breast,> 100 µM
same,GI50,TK-10 renal,> 100 µM
same,TGI,TK-10 renal,> 100 µM
same,GI50,CAKI-1 renal,0.529 µM
same,TGI,CAKI-1 renal,> 100 µM
same,GI50,COLO 205 colon,> 100 µM
same,TGI,COLO 205 colon,> 100 µM
same,GI50,MDA-MB-435,3.78 µM
same,TGI,MDA-MB-435,> 100 µM
same,GI50,SK-MEL-28 melanoma,> 100 µM
same,TGI,SK-MEL-28 melanoma,> 100 µM
same,GI50,OVCAR-8 ovarian,26.5 µM
same,TGI,OVCAR-8 ovarian,> 100 µM
O=C(Cc1n[nH]c(=O)c2ccccc12)OCc1c(Cl)cccc1Cl,GI50,M14 melanoma,> 100 µM
same,TGI,M14 melanoma,> 100 µM
same,GI50,NCI-H460 lung,2.39 µM
same,TGI,NCI-H460 lung,> 100 µM
same,GI50,NCI-H23 lung,> 100 µM
same,TGI,NCI-H23 lung,> 100 µM
same,GI50,BT-549 breast,16.3 µM
same,TGI,BT-549 breast,> 100 µM
same,GI50,OVCAR-3 ovarian,41.9 µM
same,TGI,OVCAR-3 ovarian,> 100 µM
same,GI50,NCI-H522 lung,> 100 µM
same,TGI,NCI-H522 lung,> 100 µM
same,GI50,SN12C renal,> 100 µM
same,TGI,SN12C renal,> 100 µM
same,GI50,HT29 colon,15.6 µM
same,TGI,HT29 colon,> 100 µM
same,GI50,UACC-62 melanoma,8.55 µM
same,TGI,UACC-62 melanoma,> 100 µM
same,GI50,U251 CNS,8.39 µM
same,TGI,U251 CNS,> 100 µM
same,GI50,MALME-3M melanoma,48.5 µM
same,TGI,MALME-3M melanoma,> 100 µM
same,GI50,786-0 renal,15.1 µM
same,TGI,786-0 renal,> 100 µM
same,GI50,MDA-MB-231 breast,69.8 µM
same,TGI,MDA-MB-231 breast,> 100 µM
same,GI50,SK-OV-3 ovarian,12.8 µM
same,TGI,SK-OV-3 ovarian,> 100 µM
same,GI50,EKVX NSCLC,> 100 µM
same,TGI,EKVX NSCLC,> 100 µM
same,GI50,UACC-257 melanoma,> 100 µM
same,TGI,UACC-257 melanoma,> 100 µM
same,GI50,A549 NSCLC,> 100 µM
same,TGI,A549 NSCLC,> 100 µM
same,GI50,SK-MEL-2 melanoma,> 100 µM
same,TGI,SK-MEL-2 melanoma,> 100 µM
same,GI50,HCC-2998 colon,50.4 µM
same,TGI,HCC-2998 colon,> 100 µM
same,GI50,RXF 393 renal,24.1 µM
same,TGI,RXF 393 renal,68.3 µM
same,GI50,RPMI-8226 leukemia,82.4 µM
same,TGI,RPMI-8226 leukemia,> 100 µM
same,GI50,KM12 colon,24.2 µM
same,TGI,KM12 colon,> 100 µM
same,GI50,SF-268 CNS,9.21 µM
same,TGI,SF-268 CNS,> 100 µM
same,GI50,HCT-116 colon,3.64 µM
same,TGI,HCT-116 colon,> 100 µM
same,GI50,HOP-92 NSCLC,> 100 µM
same,TGI,HOP-92 NSCLC,> 100 µM
same,GI50,K-562 leukemia,4.19 µM
same,TGI,K-562 leukemia,> 100 µM
same,GI50,IGROV1 ovarian,> 100 µM
same,TGI,IGROV1 ovarian,> 100 µM
same,GI50,HCT-15 colon,1.74 µM
same,TGI,HCT-15 colon,> 100 µM
same,GI50,A498 renal,> 100 µM
same,TGI,A498 renal,> 100 µM
same,GI50,LOX IMVI melanoma,5.16 µM
same,TGI,LOX IMVI melanoma,> 100 µM
same,GI50,SF-539 CNS,10.1 µM
same,TGI,SF-539 CNS,> 100 µM
same,GI50,NCI/ADR-RES ovarian,93.6 µM
same,TGI,NCI/ADR-RES ovarian,> 100 µM
same,GI50,ACHN renal,82 µM
same,TGI,ACHN renal,> 100 µM
same,GI50,SW-620 colon,49.8 µM
same,TGI,SW-620 colon,> 100 µM
same,GI50,DU-145 prostate,53.4 µM
same,TGI,DU-145 prostate,> 100 µM
same,GI50,MCF7 breast,> 100 µM
same,TGI,MCF7 breast,> 100 µM
same,GI50,SNB-19 CNS,15.6 µM
same,TGI,SNB-19 CNS,> 100 µM
same,GI50,SK-MEL-5 melanoma,4.18 µM
same,TGI,SK-MEL-5 melanoma,> 100 µM
same,GI50,SNB-75 CNS,25.8 µM
same,TGI,SNB-75 CNS,> 100 µM
same,GI50,MOLT-4 leukemia,4.07 µM
same,TGI,MOLT-4 leukemia,> 100 µM
same,GI50,HS 578T breast,17.4 µM
same,TGI,HS 578T breast,> 100 µM
same,GI50,OVCAR-4 ovarian,> 100 µM
same,TGI,OVCAR-4 ovarian,> 100 µM
same,GI50,UO-31 renal,> 100 µM
same,TGI,UO-31 renal,> 100 µM
same,GI50,NCI-H226 lung,9.97 µM
same,TGI,NCI-H226 lung,> 100 µM
same,GI50,T-47D breast,24.6 µM
same,TGI,T-47D breast,> 100 µM
same,GI50,TK-10 renal,41 µM
same,TGI,TK-10 renal,> 100 µM
same,GI50,CAKI-1 renal,26.2 µM
same,TGI,CAKI-1 renal,> 100 µM
same,GI50,HL-60(TB) leukemia,6.53 µM
same,TGI,HL-60(TB) leukemia,> 100 µM
same,GI50,OVCAR-5 ovarian,> 100 µM
same,TGI,OVCAR-5 ovarian,> 100 µM
same,GI50,COLO 205 colon,5.63 µM
same,TGI,COLO 205 colon,> 100 µM
same,GI50,MDA-MB-435,> 100 µM
same,TGI,MDA-MB-435,> 100 µM
same,GI50,SK-MEL-28 melanoma,> 100 µM
same,TGI,SK-MEL-28 melanoma,> 100 µM
same,GI50,OVCAR-8 ovarian,36.5 µM
same,TGI,OVCAR-8 ovarian,> 100 µM
